Source: ChEMBL document CHEMBL3352391, “Trichormamides A and B with Antiproliferative Activity from the Cultured Freshwater Cyanobacterium Trichormus sp. UIC 10339” (J Nat Prod, 2014)

Columns and labels:
[1] = tested on: MDA-MB-435; experiment: Antiproliferative activity against human MDA-MB-435 cells after 72 hrs by MTS assay; assay type: functional, cell-based; details: MDA-MB-435, 72 h
[2] = tested on: HT-29; experiment: Antiproliferative activity against human HT-29 cells after 72 hrs by MTS assay; assay type: functional, cell-based; details: HT-29, 72 h

- IC50 [1]: 800 nM
- IC50 [2]: 1500 nM
SMILES: CCCCCCC[C@@H]1CC(=O)N[C@@H]([C@@H](C)CC)C(=O)N[C@H]([C@@H](O)C(C)C)C(=O)N[C@@H](CCO)C(=O)N[C@H]([C@@H](O)C(C)C)C(=O)N[C@@H](CCC(N)=O)C(=O)N(C)[C@@H]([C@@H](C)CC)C(=O)N[C@H](CO)C(=O)N[C@@H]([C@@H](C)O)C(=O)N2CCC[C@H]2C(=O)N[C@H](Cc2ccc(O)cc2)C(=O)N[C@@H]([C@@H](C)O)C(=O)N1
